Here are results for one molecule from paper PMC11881906, “Development of xanthone derivatives as effective broad-spectrum antimicrobials: Disrupting cell wall and inhibiting DNA synthesis” (Science Advances, 2025).

The subject of one series is A. baumannii ATCC 17978. In words: MIC, broth microdilution. Format: cell-based. The settings on record: Acinetobacter baumannii, ATCC17978; 24-hour incubation, MHB. In outline:
(§1)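 Broth microdilution per CLSI in Mueller-Hinton broth, twofold dilutions from 0.39 to 100 μg/ml, DMSO below 0.5%. Inoculum 1 × 10^6 cells/ml. Growth read as OD600 after 24 h at 37°C; three repeats in duplicate.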
For orientation: Broth dilution looks for growth in wells or tubes with falling amounts of substance.

The next series concerns A. baumannii R2889. In words: MIC, broth microdilution. Format: cell-based. The settings on record: Acinetobacter baumannii, 24-hour incubation, MHB. In outline:
as §1

The subject of the next series is K. pneumonia ATCC 10031. As to the kind of experiment: MIC, broth microdilution. In kind it is cell-based. The following applies: Klebsiella pneumoniae, ATCC10031; 24-hour incubation, MHB. In outline:
as §1

A further series concerns K. pneumonia ATCC 14581. As to the kind of experiment: MIC, broth microdilution. In kind it is cell-based. The following applies: Klebsiella pneumoniae, ATCC14581; 24-hour incubation, MHB. In outline:
as §1

A further series deals with MRSA N315. In words: MIC, broth microdilution. In kind it is cell-based. The following applies: Staphylococcus aureus, 24-hour incubation, MHB, read-out: MIC90 MRSA N315. In outline:
as §1

Another series deals with MRSA NCTC 10442. In words: MIC, broth microdilution. The following applies: Staphylococcus aureus; 24-hour incubation, MHB; read-out: MIC90 MRSA NCTC 10442. Format: cell-based. Put shortly: as §1
Series [1] relates to P. aeruginosa ATCC 9027. As to the kind of experiment: MIC, broth microdilution. Format: cell-based. The following applies: Pseudomonas aeruginosa, ATCC9027; 24-hour incubation, MHB. In outline:
as §1

The test system of series [2] is S. aureus ATCC 29213. As to the kind of experiment: MIC, broth microdilution. Format: cell-based. The following applies: Staphylococcus aureus, ATCC29213, 24 h, 24-hour incubation, MHB; read-out: MIC90 S. aureus ATCC 29213. Put shortly:
as §1

The subject of a further series is Gram-negative bacteria. As to the kind of experiment: MIC, Gram-negative strains. Format: cell-based. The following applies: read-out: MICs against Gram-negative bacteria. How it is done: MIC was determined using the broth microdilution method in accordance with Clinical and Laboratory Standards Institute guidelines. All compounds were dissolved in dimethyl sulfoxide (DMSO; final DMSO concentration of less than 0.5%) and sterile double-distilled water and then diluted with Mueller-Hinton broth (MHB). Each compound’s stock solution was serially twofold diluted, resulting in concentrations ranging from 0.39 to 100 μg/ml, and thereafter added to sterile 96-well plates. All bacterial cell suspensions were adjusted in MHB to attain a starting inoculum of 1 × 10^6 cells/ml. A total of 100 μl volume of the bacterial suspension was then added to each well. Following a 24-hour incubation at 37°C, the optical density at 600 nm (OD600) was confirmed by measuring absorbance at 600 nm with a BioTek microplate reader. […] All measurements were repeated three times with duplicates each time.

Series [3] can be described thus: In vitro cytotoxicity (CC50). In kind it is cell-based. The settings on record: human, mouse, HepG2 cells and mouse fibroblast NCTC clone 929 cells; mammalian cells, CCK-8; read-out: concentration of cytotoxicity 50% (CC50). How it is done:
Cytotoxicity of the compound tested was assessed by CCK-8 assays as previously described ([71]). […] Following a 24-hour incubation, 10 μl of CCK-8 reagent was added to each well and incubated for 1 hour. The absorbance at 450 nm was measured by a microplate reader. All measurements were repeated three times with duplicates each time.

The subject of series [4] is S. aureus ATCC 29213. In words: Time-kill kinetic assay. In kind it is cell-based, Staphylococcus aureus. The following applies: 10× MIC, 24 hours. As for the experimental part:
The bacterial cultures were standardized to obtain an initial density that ranged from 10^5 to 10^6 cells/ml. The cultures were incubated in a shaking bath at 37°C. Viable counts were determined at 0-, 0.5-, 1.0-, 2.0-, 4.0-, 8.0-, and 24-hour intervals by spotting 10-μl aliquots of serially 10-fold diluted cultures onto Mueller-Hinton agar (MHA) plates. […] All measurements were repeated three times with duplicates each time.

The subject of series [5] is P. aeruginosa ATCC 9027. In words: Serial passage resistance induction. Format: cell-based, Pseudomonas aeruginosa. The following applies: 20-day passages at 0.5× MIC. As for the experimental part:
The bacteria were grown in a medium containing 0.5× MIC of each compound to prepare the bacterial suspension for the next MIC determination. The MICs were then recorded after incubation at 37°C for 24 hours. Daily passages were continued until the initial MIC increased by more than fourfold. The stability of acquired resistance was investigated by MIC determination and repeated for 20 days.

The test system of another series is E. coli ATCC 25922. As to the kind of experiment: SYTOX Green uptake assay. In kind it is cell-based, Escherichia coli. The settings on record: up to 8× MIC. How it is done:
The SYTOX Green uptake was measured to explore the inner membrane permeability. The overnight bacteria culture was centrifuged and resuspended in sterile PBS to obtain an OD600 of 0.2. SYTOX Green dye was added to a final concentration of 0.3 μM and incubated for 20 min without being exposed to the light. Fluorescence was measured at excitation and emission wavelengths of 504 and 523 nm, respectively. […] The changes in fluorescence intensity were continuously monitored for 1 hour. All measurements were repeated three times with duplicates each time.

The next series deals with LTA. As to the kind of experiment: Fluorescence-based binding assay. The following applies: compound 1× MIC; LTA 0 to 2.5 μg/ml. How it is done: Changes in the fluorescence emission spectrum or intensity were assessed for compound XT17 with and without the presence of targeted proteins. The fluorescent properties of compound XT17 (excitation wavelength of 350 nm and emission wavelength of 440 nm) were measured using a fluorescent plate reader upon binding to the targets. LTA-targeted protein concentrations ranged from 0.2 to 6.25 μg/ml, while LPS concentrations ranged from 0.78 to 25 μg/ml. The changes in the emission from a constant concentration of fluorescent compound were monitored after adding increasing concentrations of LTA or LPS. All measurements were repeated three times with duplicates each time.

Molecules are shown by their SMILES. Values after ≈ are worked out from the molar mass of the structure shown. A value given as a limit tells only on which side of the number the result lay.

Broadly, the MIC90 is the lowest concentration that inhibits either 90% of growth or 90% of the strains tested, depending on the study. Turning to `CC(C)=CCOc1cc(OCCCNC(=N)N)cc2oc3cc(OCCCNC(=N)N)ccc3c(=O)c12` [XT17], the MIC90 in the series on A. baumannii ATCC 17978 worked out at 25 µg/mL (≈ 49 µM); with A. baumannii R2889, 50 µg/mL (≈ 97.9 µM); with K. pneumonia ATCC 10031 it was 6.25 µg/mL (≈ 12.2 µM); against K. pneumonia ATCC 14581, 12.5 µg/mL (≈ 24.5 µM); with MRSA N315 it was 0.39 µg/mL (≈ 0.764 µM); in the series with MRSA NCTC 10442 it was 0.39 µg/mL (≈ 0.764 µM). The MIC90 in the series with P. aeruginosa ATCC 9027 [1] stood at 3.12 µg/mL (≈ 6.12 µM); in the series on S. aureus ATCC 29213 [2] it was 0.39 µg/mL (≈ 0.764 µM). Moreover, the MIC with Gram-negative bacteria stood at 3.12 µg/mL (≈ 6.12 µM). Further, in [3], the CC50 at 24 h is above 50 µg/mL. The “log decrease in bacterial load” value with S. aureus ATCC 29213 [4] stood at 5.16 log. For the same molecule, the “increase in MIC values during passages” value in the series on P. aeruginosa ATCC 9027 [5] is “no more than fourfold increase”. The “SYTOX Green fluorescence intensity (cytoplasmic membrane permeabilization)” value in the series on E. coli ATCC 25922 was “did not show a notable increase”. Also, in the series on LTA, the “fluorescence emission of compound upon binding to LTA” value is on record as “decreased in a concentration-dependent manner”.
